# Assay results taken from patent US9193695B2, “1, 2, 4-triazolone derivative and use thereof as an antagonist on the arginine-vasopressin 1B receptor” (TAISHO PHARMACEUTICAL CO., LTD., priority 2010, dated 2015).
# Counter-ions that a name gives are not always drawn.
# Assays:
# [1] = biological target: T1, Human V1b receptor (Homo sapiens, UniProt P47901); assay: Measurement of V1b receptor antagonistic activity (AVP-induced fluorescence, Fluo-4, FDSS); assay type: cell-based; set-up: expressed in transfected cells
# T1 sequence (P47901 1-424): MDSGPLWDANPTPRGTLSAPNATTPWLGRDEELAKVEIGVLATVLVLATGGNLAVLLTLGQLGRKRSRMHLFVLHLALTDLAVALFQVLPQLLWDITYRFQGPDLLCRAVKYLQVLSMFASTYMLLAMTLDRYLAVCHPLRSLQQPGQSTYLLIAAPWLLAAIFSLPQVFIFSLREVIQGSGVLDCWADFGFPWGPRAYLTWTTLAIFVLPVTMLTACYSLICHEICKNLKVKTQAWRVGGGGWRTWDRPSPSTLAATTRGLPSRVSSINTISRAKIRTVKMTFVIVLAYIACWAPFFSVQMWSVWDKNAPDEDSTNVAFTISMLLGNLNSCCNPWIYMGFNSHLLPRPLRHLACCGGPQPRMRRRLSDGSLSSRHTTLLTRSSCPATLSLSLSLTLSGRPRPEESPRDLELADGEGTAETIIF
# Procedure: Measurement of V1b Receptor Antagonistic Activity
# CHO cells (ATCC) stably expressing human V1b receptor were cultured in Ham's F-12 medium (containing 10% FBS and 0.5 mg/mL Geneticin). The cells were seeded the day before the test at 20,000 cells/well in a 96-well poly-D-lysine coated black plate. On the day of the test, the culture medium was removed, and a loading solution (1×HBSS, 10 mmol/L HEPES, 0.1% bovine serum albumin, 1.25 mmol/L Probenecid, 0.02% Pluronic F-127, 1.5 μmol/L Fluo-4-AM, pH 7.4) was added to each well, followed by incubation in a CO2 incubator for 1 hour. After the incubation, the loading solution was removed. A test solution (1×HBSS, 10 mmol/L HEPES, 0.1% bovine serum albumin, 1.25 mmol/L Probenecid, pH 7.4) containing any one of test compounds was added to wells, followed by incubation in a CO2 incubator for 30 minutes. The test compound was serially diluted with DMSO so as to be assayed at a final concentration of 0.1 nmol/L to 1 μmol/L. After the incubation, measurement of fluorescence intensity levels and addition of AVP were performed with Functional Drug Screening System (FDSS, Hamamatsu Photonics K.K.). […] The fluorescence level in the well not containing any test compound and AVP was defined as 0%, and the fluorescence level in the well not containing any test compound but containing AVP was defined as 100%. A dose-response curve was plotted from fluorescence levels after the addition of AVP in the presence of a test compound at various concentrations, and the 50% inhibitory concentration (IC50 value) of the compound was calculated.
# [2] = biological target: T1, Human V1b receptor; assay: Binding test for V1b receptor ([3H]AVP displacement, crude membrane preparation); set-up: expressed in transfected cells; host or cells: 293FT cells (Invitrogen), transient expression; crude membrane preparation; details: [3H]AVP 0.4 to 1 nmol/L; membranes of 293FT cells transiently expressing human V1b receptor; room temperature, 60 minutes
# Method in brief: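 Crude membranes from 293FT cells transiently expressing human V1b, in 50 mmol/L Tris-HCl pH 7.4 with 10 mmol/L MgCl2 and 0.1% BSA, incubated with compound (0.01 nmol/L–1 μmol/L) and [3H]AVP (0.4–1 nmol/L) for 60 min at room temperature. Filter-bound radioactivity counted; 10 μmol/L unlabeled AVP defined 0%. IC50 from dose-response curve.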
# [3] = CHO cells stably expressing human V1b receptor, AVP 2.5 nmol/L, 30 minutes preincubation, read-out: IC50 value (V1b receptor antagonistic activity)
SMILES,IC50 [2] [nM],"IC50 [1, 3] [nM]",IC50 [1] [nM]
"CC(C)NC(=O)Cn1c(-c2ccc(F)c(Cl)c2)nn(-c2ccc(CCN3C4CCC3CC(O)C4)cc2)c1=O (centres unmarked) [Da-6, 2-[3-(3-Chloro-4-fluorophenyl)-1-{4-[2-(3-hydroxy-8-azabicyclo[3.2.1]oct-8-yl)ethyl]phenyl}-5-oxo-1,5-dihydro-4H-1,2,4-triazol-4-yl]-N-(propan-2-yl)acetamide]",4.4,,12
"COc1cc(-c2nn(-c3ccc(CCN4C5CCC4CC(O)C5)cc3)c(=O)n2CC(=O)NC(C)C)ccc1F (centres unmarked) [Ca-3, 2-[3-(4-Fluoro-3-methoxyphenyl)-1-{4-[2-(3-hydroxy-8-azabicyclo[3.2.1]oct-8-yl)ethyl]phenyl}-5-oxo-1,5-dihydro-4H-1,2,4-triazol-4-yl]-N-(propan-2-yl)acetamide]",6,16,
"CC(C)NC(=O)Cn1c(-c2cccc(Cl)c2)nn(-c2ccc(CCN3C4CCC3COC4)cn2)c1=O [Ab-5, 2-[3-(3-Chlorophenyl)-1-{5-[2-(3-oxa-8-azabicyclo[3.2.1]oct-8-yl)ethyl]pyridin-2-yl}-5-oxo-1,5-dihydro-4H-1,2,4-triazol-4-yl]-N-(propan-2-yl)acetamide]",8.6,29,
"CC(C)NC(=O)Cn1c(-c2ccc(F)c(Cl)c2)nn(-c2ccc(CCN3C4CCC3COC4)cc2)c1=O [Da-5, 2-[3-(3-Chloro-4-fluorophenyl)-1-{4-[2-(3-oxa-8-azabicyclo[3.2.1]oct-8-yl)ethyl]phenyl}-5-oxo-1,5-dihydro-4H-1,2,4-triazol-4-yl]-N-(propan-2-yl)acetamide]",2.5,6,
"CC(C)NC(=O)Cn1c(-c2cccc(Cl)c2)nn(-c2ccc(CCN3C4CCC3COC4)cc2)c1=O [Aa-10, 2-[3-(3-Chlorophenyl)-1-{4-[2-(3-oxa-8-azabicyclo[3.2.1]oct-8-yl)ethyl]phenyl}-5-oxo-1,5-dihydro-4H-1,2,4-triazol-4-yl]-N-(propan-2-yl)acetamide]",4.7,,20
"CC(C)NC(=O)Cn1c(-c2cccc(Cl)c2)nn(-c2ccc(CCN3C4CCC3CC(O)C4)cc2)c1=O (centres unmarked) [Aa-8, 2-[3-(3-Chlorophenyl)-1-{4-[2-(3-hydroxy-8-azabicyclo[3.2.1]oct-8-yl)ethyl]phenyl}-5-oxo-1,5-dihydro-4H-1,2,4-triazol-4-yl]-N-(propan-2-yl)acetamide]",4.1,23,
"CC(C)NC(=O)Cn1c(-c2cccc(Cl)c2)nn(-c2ccc(CC(C)N3C4CCC3COC4)cn2)c1=O (centres unmarked) [Ad-16, 2-[3-(3-Chlorophenyl)-1-{5-[2-(3-oxa-8-azabicyclo[3.2.1]oct-8-yl)propyl]pyridin-2-yl}-5-oxo-1,5-dihydro-4H-1,2,4-triazol-4-yl]-N-(propan-2-yl)acetamide]",0.92,,
"COc1cc(-c2nn(-c3ccc(CCN4C(C)COCC4C)cc3)c(=O)n2CC(=O)NC(C)C)ccc1F (centres unmarked) [Ca-21, 2-[1-{4-[2-(3,5-Dimethylmorpholin-4-yl)ethyl]phenyl}-3-(4-fluoro-3-methoxyphenyl)-5-oxo-1,5-dihydro-4H-1,2,4-triazol-4-yl]-N-(propan-2-yl)acetamide trifluoroacetate]",10 to 100,,
"CC(C)NC(=O)Cn1c(-c2ccc(F)c(Cl)c2)nn(-c2ccc(CCN3CCCCC3)cn2)c1=O [Db-1, 2-[3-(3-Chloro-4-fluorophenyl)-5-oxo-1-{5-[2-(piperidin-1-yl)ethyl]pyridin-2-yl}-1,5-dihydro-4H-1,2,4-triazol-4-yl]-N-(propan-2-yl)acetamide]",16,,

# Now from value to compound, other results behind:
IC50 [2] [nM],"IC50 [1, 3] [nM]",SMILES,IC50 [1] [nM]
19,30,"COc1cccc(-c2nn(-c3ccc(CCN4CCOCC4)cc3)c(=O)n2CC(=O)NC(C)C)c1 [Ba-2, 2-[3-(3-Methoxyphenyl)-1-{4-[2-(morpholin-4-yl)ethyl]phenyl}-5-oxo-1,5-dihydro-4H-1,2,4-triazol-4-yl]-N-(propan-2-yl)acetamide]",
10,11,"COc1cc(-c2nn(-c3ccc(CCN4CCOCC4)cc3)c(=O)n2CC(=O)NC(C)C)ccc1F [Ca-2, 2-[3-(4-Fluoro-3-methoxyphenyl)-1-{4-[2-(morpholin-4-yl)ethyl]phenyl}-5-oxo-1,5-dihydro-4H-1,2,4-triazol-4-yl]-N-(propan-2-yl)acetamide]",
17,26,"COc1cc(-c2nn(-c3ccc(CCN4CCOCC4)cn3)c(=O)n2CC(=O)NC(C)C)ccc1F [Cb-2, 2-[3-(4-Fluoro-3-methoxyphenyl)-1-{5-[2-(morpholin-4-yl)ethyl]pyridin-2-yl}-5-oxo-1,5-dihydro-4H-1,2,4-triazol-4-yl]-N-(propan-2-yl)acetamide]",
4.3,6.3,"CC(C)NC(=O)Cn1c(-c2ccc(F)c(Cl)c2)nn(-c2ccc(CCN3CCOCC3)cc2)c1=O [Da-2, 2-[3-(3-Chloro-4-fluorophenyl)-1-{4-[2-(morpholin-4-yl)ethyl]phenyl}-5-oxo-1,5-dihydro-4H-1,2,4-triazol-4-yl]-N-(propan-2-yl)acetamide]",
41,13,"CC(C)NC(=O)Cn1c(-c2cccc(Cl)c2)nn(-c2ccc(CCN3CCOCC3)cn2)c1=O [Ab-2, 2-[3-(3-Chlorophenyl)-1-{5-[2-(morpholin-4-yl)ethyl]pyridin-2-yl}-5-oxo-1,5-dihydro-4H-1,2,4-triazol-4-yl]-N-(propan-2-yl)acetamide]",
8.6,9.3,"CC(C)NC(=O)Cn1c(-c2cccc(Cl)c2)nn(-c2ccc(CCN3CCOCC3)cc2)c1=O [Aa-1, 2-[3-(3-Chlorophenyl)-1-{4-[2-(morpholin-4-yl)ethyl]phenyl}-5-oxo-1,5-dihydro-4H-1,2,4-triazol-4-yl]-N-(propan-2-yl)acetamide]",
20,,"CC(C)NC(=O)Cn1c(-c2cccc(Cl)c2)nn(-c2ccc(CCN3CCCOCC3)cc2)c1=O [Aa-13, 2-[3-(3-Chlorophenyl)-1-{4-[2-(1,4-oxazepan-4-yl)ethyl]phenyl}-5-oxo-1,5-dihydro-4H-1,2,4-triazol-4-yl]-N-(propan-2-yl)acetamide]",
3.5,,"CC(C)(C)NC(=O)Cn1c(-c2cccc(Cl)c2)nn(-c2ccc(CCN3CCOCC3)cn2)c1=O [Ad-17, N-Tert-Butyl-2-[3-(3-chlorophenyl)-1-{5-[2-(morpholin-4-yl)ethyl]pyridin-2-yl}-5-oxo-1,5-dihydro-4H-1,2,4-triazol-4-yl]acetamide]",
